Source: patent US20170296568A1, “SIRTUIN GENE POTENTIATOR, AND PHARMACEUTICAL PRODUCT, COSMETIC PRODUCT, AND FOOD PRODUCT USING SAME” (MORISHITA JINTAN CO., LTD., priority 2012, published 2017)

What was measured:
[1] = test system: sirtuin gene hSIRT1; experiment: Expression level of endogenous sirtuin gene hSIRT1 in Caco-2 cells (quantitative PCR, relative to β-actin); type: cell-based, human; conditions: 10 μM, 2 days, qPCR normalised to β-actin, FIG. 2
Experimental: Caco-2 cells were plated at 3.0×10^5 cells for a 5-mL dish. After 24 hours, each polyphenol was added to be 10 μM. Note that as a negative control, none of polyphenol nor terpenoid was added, and as a positive control, 10 μM resveratrol was added. At 2 days after this treatment, RNA was collected.
The total RNA was prepared using High Pure RNA Isolation Kit (manufactured by Roche, Indianapolis, Ind., USA). For the procedures from the total RNA preparation to the reverse transcription, the reagents and tools used were RNase-free. Cells were prepared in a sub-confluent to confluent condition in a cell culture dish (Greiner bio-one, Monroe, N.C., USA). The medium was completely removed, 200 μL of PBS, and 400 μL of cell lysis solution, which was contained in High Pure RNA Isolation Kit, were added, and the entire dish was well covered by the cell lysis solution. When the viscosity of the cell lysis solution was decreased, the cell lysis solution was collected into a 1.5-mL sample tube. The collected sample was well suspended. A filter tube and a collection tube, which were contained in High Pure RNA Isolation Kit, were assembled, and the sample was pipetted into a buffer reservoir in the upper portion of the filter tube, and was centrifuged at 8,000×g for 15 seconds. The flowthrough liquid into the collection tube was discarded, and the filter tube and the collection tube were again assembled. Then, 90 μL of DNase incubation buffer per sample was pipetted into a sterile reaction tube, and 10 μL of DNase I was added into the tube and mixed. The mixture liquid was pipetted into the buffer reservoir in the upper portion of the filter tube, was added on the glass fiber fleece in the filter tube, and was incubated at room temperature for 15 minutes. Then, 500 μL of wash buffer I, which was contained in High Pure RNA Isolation Kit, was added to the buffer reservoir in the upper portion of the filter tube, and was centrifuged at 8,000×g for 15 seconds. The flowthrough liquid into the collection tube was discarded, and the filter tube and the collection tube were again assembled. Then, 500 μL of wash buffer II was added to the buffer reservoir in the upper portion of the filter tube, and centrifugation was performed at 8,000×g for 15 seconds. The liquid discharged to the collection tube was discarded, and the filter tube and the collection tube were again assembled. Then, 200 μL of wash buffer II was added to the buffer reservoir in the upper portion of the filter tube, and centrifugation was performed at 13,000×g for 2 minutes, after which a remaining wash buffer in the filter tube was removed. The collection tube was discarded, the filter tube was inserted into a sterile reaction tube, and 50 μL of elution buffer was added in the filter tube, and centrifugation was performed at 8,000×g for 1 minute. The eluate obtained by the procedures was taken as an RNA solution. The concentration of RNA in the solution was calculated based on the light absorbance at 260 nm with a NanoDrop 2000/2000c spectrophotometer (Thermo Scientific, Waltham, Mass., USA), for use in subsequent experiments.
Then, 5 pmol of oligo(dT)20 primer was added to 1.0 μg of total RNA extracted from the cells, and sterile water was further added thereto so that the total liquid amount was 13 μL. Heat treatment was performed using a thermal cycler (Peltier Thermal Cycler PTC-200, MJ Research, Watertown, Mass., USA) at 65° C. for 5 minutes, and the resultant was immediately transferred in ice to quench it. During this treatment, the reverse transcriptase reaction program was advanced to the 42° C. stage and was temporarily stopped. A mixture solution obtained by mixing 4 μL of reverse transcriptase reaction buffer solution, 2 μL of 1 mM dNTPs (Amershan Pharmacia Biotech., Buckinghamshire, UK), and 0.5 μL of reverse transcriptase ReverTra Ace (TOYOBO, Osaka, Japan) per sample was added to and gently mixed with the sample on ice after 5 minutes. […]

[2] = test system: hSIRT1 promoter; experiment: Enhancing the hSIRT1 promoter: EGFP fluorescence intensity in HaCaT-hSIRT1p-EGFP cells by flow cytometry; type: cell-based, human; conditions: 10 μM in DMSO, 24 hours after addition, FIG. 4
Experimental: HaCaT cells (human epidermis keratinocyte-derived cell lines, provided by Dr. Takumi Miura, National Center for Child Health and Development) were cultured using a Dalbecco's Modified Eagle Medium (DMEM) medium (Nissui Pharmaceutical Co., Ltd, Tokyo) supplemented with 10% FBS, 100,000 U/L penicillin (Meiji, Tokyo), 100 mg/L streptomycin (Meiji), and 2.0 g/L NaHCO3. These cells were subcultured at 37° C. in the presence of 5% CO2.
HaCaT cell lines (HaCaT-hSIRT1p-EGFP cells) into which the vector (phSIRT1-EGFP) described in Reference Example 1 was integrated were prepared as below.
The HaCaT cells were disseminated at 9.0×10^5 in a φ60-mm dish, and were cultured in 10% FBS supplemented DMEM medium. Cells as a control were prepared in a similar manner. After 24 hours, 8 μg of phSIRT1p-EGFP was added to and mixed with 300 μL of DMEM medium, 24 μL of Hilymax (manufactured by Dojindo Laboratories), which is a transfection reagent, was further added and mixed therewith, and the mixture was incubated for 15 minutes at room temperature. Subsequently, the total amount was added to the HaCaT cells. After 3 hours, the medium was replaced by 10% FBS supplemented DMEM medium.
At 24 hours after the gene introduction, the medium was replaced by 10% FBS supplemented DMEM medium containing 750 μg/mL of G418 (Wako Pure Chemical Industries, Ltd.). After visually confirming under a microscope that all the control non-treated HaCaT cells were killed, the subculture was continued using 10% FBS supplemented DMEM containing 150 μg/mL of G418.
It was confirmed with flow cytometry that the phSIRT1p-EGFP vector was reliably transferred inro the cells after the subculture. The above-described cells and the control non-treated HaCaT cells were plated at 7.0×10^5 per a φ60-mm dish, respectively. After 24 hours, the cells were picked up and well suspended in 2 mL of 5% FBS supplemented DMEM medium, and were filtered through a Nylon Mesh (Kyoshin Rikoh Inc., Japan), and the EGFP fluorescence intensity thereof was measured with a Flow Cytometer (EPICS, BeckmanCoulter). The analysis was performed using software FlowJo (Tree Star, Ashland Oreg.), so that the EGFP fluorescence intensity of each cell was represented as a histogram.
HaCaT-hSIRT1p-EGFP cells were plated at 1.7×10^6 cells in a φ60-mm dish (as measured by flow cytometry) or at 2.0×10^4 cells/well in a 96-well plate (as measured by an IN Cell Analyzer 1000). After 24 hours, 10 μM of each polyphenol or terpenoid dissolved in DMSO (Wako Pure Chemical Industries, Ltd.) was added thereto. Note that as a negative control, the same amount of DMSO was added without polyphenol or terpenoid, and as a positive control, 10 μM resveratrol was added. At 24 hours after the addition of the various polyphenols or terpenoids or the controls, the fluorescence intensity was measured by flow cytometry.

| Structure (SMILES) | relative gene expression level of hSIRT1 [1] | EGFP fluorescence intensity (hSIRT1 promoter activity) [2] |
| --- | --- | --- |
| O=C1O[C@H]2[C@@H]3OC(=O)c4cc(O)c(O)c(O)c4-c4c(O)c(O)c5oc(=O)c6c(c(O)c(O)c7oc(=O)c4c5c76)-c4c(cc(O)c(O)c4O)C(=O)OC[C@H]3OC(O)[C@@H]2OC(=O)c2cc(O)c(O)c(O)c2-c2c1cc(O)c(O)c2O (mixture of isomers) [punicalagin] | hSIRT1 transcription enhancing effect was observed | hSIRT1 expression effect on skin epidermis cells was seen |
| O=C1OC[C@H]2OC(O)[C@H](O)[C@@H](O)[C@@H]2OC(=O)c2cc(O)c(O)c(O)c2-c2c(O)c(O)c3oc(=O)c4c(c(O)c(O)c5oc(=O)c2c3c54)-c2c1cc(O)c(O)c2O (mixture of isomers) [punicalin] | hSIRT1 transcription enhancing effect was observed | hSIRT1 expression effect on skin epidermis cells was seen |
| O=c1c(O)c(-c2ccc(O)c(O)c2)oc2cc(O)ccc12 [fisetin] | hSIRT1 transcription enhancing effect was observed | hSIRT1 expression effect on skin epidermis cells was seen |
| C[C@@]12C=Cc3occc3[C@H]1CC[C@@]13C[C@@H](CC[C@H]12)[C@@](O)(CO)C3 [kahweol] | hSIRT1 transcription enhancing effect was observed | hSIRT1 expression effect on skin epidermis cells was seen |
| O=c1oc2cc(O)ccc2c2ccc(O)cc12 [urolithin A] | hSIRT1 transcription enhancing effect was observed | hSIRT1 expression effect on skin epidermis cells was seen |
